In this experiment the target is T1, WT hHCN1 (Homo sapiens, UniProt O60741).
T1 construct: Full-length WT or mutant human HCN1 were cloned into the pcDNA3.1 vector; expressed in transfected cells; host or cells: HeLa cells, pcDNA3.1 vector, transient lipofection
T1 sequence (O60741 1-890): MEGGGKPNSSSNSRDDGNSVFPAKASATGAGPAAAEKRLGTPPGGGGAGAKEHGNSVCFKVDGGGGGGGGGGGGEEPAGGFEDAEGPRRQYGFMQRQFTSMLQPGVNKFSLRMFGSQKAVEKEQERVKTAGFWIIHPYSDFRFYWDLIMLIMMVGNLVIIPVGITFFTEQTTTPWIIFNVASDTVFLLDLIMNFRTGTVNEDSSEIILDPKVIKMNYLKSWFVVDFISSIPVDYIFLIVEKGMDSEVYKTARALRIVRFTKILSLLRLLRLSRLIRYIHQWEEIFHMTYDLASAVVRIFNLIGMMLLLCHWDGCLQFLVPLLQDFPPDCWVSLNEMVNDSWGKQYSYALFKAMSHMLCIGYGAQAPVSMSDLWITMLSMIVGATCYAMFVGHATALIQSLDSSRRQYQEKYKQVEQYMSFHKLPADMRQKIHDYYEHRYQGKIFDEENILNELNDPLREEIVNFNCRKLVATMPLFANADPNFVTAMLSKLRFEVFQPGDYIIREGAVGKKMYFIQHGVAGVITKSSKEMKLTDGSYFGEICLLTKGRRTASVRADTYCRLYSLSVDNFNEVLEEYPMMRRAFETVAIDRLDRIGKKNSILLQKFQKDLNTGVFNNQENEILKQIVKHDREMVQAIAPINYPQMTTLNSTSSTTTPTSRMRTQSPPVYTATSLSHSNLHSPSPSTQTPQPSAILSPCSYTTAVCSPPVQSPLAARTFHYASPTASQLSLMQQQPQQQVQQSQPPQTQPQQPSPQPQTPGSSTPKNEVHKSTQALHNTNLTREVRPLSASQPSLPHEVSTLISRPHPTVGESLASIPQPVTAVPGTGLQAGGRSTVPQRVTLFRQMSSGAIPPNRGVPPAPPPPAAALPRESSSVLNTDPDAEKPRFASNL
Kind of experiment: Whole-cell patch-clamp, Ih inhibition in transfected HeLa cells. The experiment is classed as cell-based. As to conditions: membrane potential -140 mV, read-out: half-maximal inhibitory concentration (IC50) of Ih inhibition. As for the experimental part:
The electrophysiological characteristics of WT hHCN1 were recorded using whole-cell patch-clamp. […] Activation of the HCN1 channel occurred in response to membrane hyperpolarization.
Full-length WT or mutant human HCN1 were cloned into the pcDNA3.1 vector for electrophysiological experiments. HeLa cells (from Thermo Fisher Scientific) cultured in Dulbecco's modified Eagle's medium (from Solarbio Life Science) + 10% fetal bovine serum (from ExCell Bio) at 37 °C were transiently transfected using lipofection, and whole-cell patch-clamp recordings were obtained using the Axon 200B amplifier (Molecular Devices) and clampex software (https://www.moleculardevices.com/products/axon-patch-clamp-system/acquisition-and-analysis-software/pclamp-software-suite), 36 to 48 h posttransfection. The extracellular solution contained 110 mM NaCl, 0.5 mM MgCl2, 1.8 mM CaCl2, 5 mM Hepes, 30 mM KCl, and pH was adjusted to 7.4 with NaOH, while the pipette solution contained 130 mM KCl, 10 mM NaCl, 0.5 mM MgCl2, 1 mM EGTA, 5 mM Hepes, and pH was adjusted to 7.4 with KOH. The recordings were performed at room temperature, voltage-clamp mode, and filtered at 1 kHz. The sampling frequency was 10 kHz, and the series resistance was limited to 5 MΩ. To elicit channel currents, step pulses of 3 s duration ranging from −180 mV to −30 mV were applied, followed by a step to −180 mV lasting 1.25 s. The tail currents evoked by the second step were used to determine the voltage-dependent activation curves and calculate the midpoint of activation potential (V1/2). The half maximal inhibitory concentration (IC50) of drugs was determined by recording currents at a pulse of −140 mV and analyzing current amplitudes at varying drug concentrations. The IC50 value was calculated using the Hill equation.

As for `O=C(CCCN1CCC(O)(c2ccc(Cl)cc2)CC1)c1ccc(F)cc1` [haloperidol], the IC50 amounted to 33.4 µM.

Source of the values: publication PMC11530593, “Structural mechanism of human HCN1 hyperpolarization-activated channel inhibition by ivabradine” (The Journal of Biological Chemistry, 2024).
